Laboratory results as given in article PMC4131897 (Biochemistry, 2014).

Target: T1, BjPutA (proline utilization A) (Bradyrhizobium diazoefficiens, UniProt Q89E26, D778Y)
T1 sequence (Q89E26 1-999 D778Y): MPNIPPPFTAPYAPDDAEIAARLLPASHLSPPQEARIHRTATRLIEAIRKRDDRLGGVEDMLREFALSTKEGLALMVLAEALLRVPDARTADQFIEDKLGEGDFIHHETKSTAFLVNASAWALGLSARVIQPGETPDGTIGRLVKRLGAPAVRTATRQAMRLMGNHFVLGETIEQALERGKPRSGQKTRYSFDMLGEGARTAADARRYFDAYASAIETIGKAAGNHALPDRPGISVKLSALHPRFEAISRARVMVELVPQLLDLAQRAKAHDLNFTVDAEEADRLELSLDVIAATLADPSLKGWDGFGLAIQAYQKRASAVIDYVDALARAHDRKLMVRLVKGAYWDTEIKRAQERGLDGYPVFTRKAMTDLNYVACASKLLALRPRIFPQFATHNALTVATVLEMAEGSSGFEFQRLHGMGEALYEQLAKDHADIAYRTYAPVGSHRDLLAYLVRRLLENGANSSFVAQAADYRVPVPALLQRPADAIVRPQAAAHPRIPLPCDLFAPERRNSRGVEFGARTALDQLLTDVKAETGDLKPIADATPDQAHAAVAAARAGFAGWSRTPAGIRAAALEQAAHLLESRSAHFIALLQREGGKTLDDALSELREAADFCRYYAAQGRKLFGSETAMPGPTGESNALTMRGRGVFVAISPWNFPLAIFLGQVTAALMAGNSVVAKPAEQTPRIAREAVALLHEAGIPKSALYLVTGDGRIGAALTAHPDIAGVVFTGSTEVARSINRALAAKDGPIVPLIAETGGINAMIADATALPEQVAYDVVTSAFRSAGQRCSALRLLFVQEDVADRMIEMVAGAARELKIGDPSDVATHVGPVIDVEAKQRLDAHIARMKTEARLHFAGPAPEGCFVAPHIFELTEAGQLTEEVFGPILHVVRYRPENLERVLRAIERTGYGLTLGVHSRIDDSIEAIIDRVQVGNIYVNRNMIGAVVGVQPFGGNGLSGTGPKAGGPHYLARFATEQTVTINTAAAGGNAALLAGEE
Experiment: intrinsic tryptophan fluorescence quenching
Format: binding

Kd: 670 ± 40 nM
Structure (SMILES): NC(=O)c1ccc[n+]([C@@H]2O[C@H](COP(=O)(O)OP(=O)(O)OC[C@H]3O[C@@H](n4cnc5c(N)ncnc54)[C@H](O)[C@@H]3O)[C@@H](O)[C@H]2O)c1 [NAD^+]
